Literature values in patent publication US20160158245A1, “PHARMACEUTICAL FORMULATION CONTAINING THIENOTRIAZOLODIAZEPINE COMPOUNDS” (ONCOETHIX GmbH, priority 2013, published 2016).

System: BRD4 and c-MYC
Details: cited from earlier work

Cc1sc2c(c1C)C(c1ccc(Cl)cc1)=N[C@@H](CC(=O)OC(C)(C)C)c1nnc(C)n1-2 [JQ1]
BRD4 and c-MYC down-regulation: induce BRD4 down-regulation and subsequently c-MYC down-regulation
